From patent US20050112728A1, “Adenosylmethionine synthetase from streptomyces sp gene sequences coding the same and method for mass production for secondary metabolites including antibiotics thereof” (priority 2001, published 2005)

Columns and labels:
[1] = system: S. aureofaciens; experiment: Effect of SAM on chlortetracycline production (Exp. 13); assay type: cell-based; settings: 1 mM SAM, incubation for 5 days
Protocol: (§1) Each Streptomyces species was incubated in its corresponding culture medium according to Table 1, and treated with 1 mM of SAM (Sigma, USA). After incubation for 5 days, antibiotic concentration was measured in each culture medium.

[2] = system: S. griseus; experiment: Effect of SAM on streptomycin production (Exp. 11); assay type: cell-based; settings: 1 mM SAM, incubation for 5 days, 30° C.
Protocol: as §1

[3] = system: S. spectabilis; experiment: Effect of SAM on spectinomycin production (Exp. 9); assay type: cell-based; settings: 1 mM SAM, incubation for 5 days, 30° C.
Protocol: as §1

[4] = system: S. avermitilis; experiment: Effect of SAM on avermectin production (Exp. 7); assay type: cell-based; settings: 1 mM SAM, incubation for 5 days, 25° C.
Protocol: as §1

[5] = system: S. aureofaciens; experiment: Effect of SAM on tetracycline production (Exp. 12); assay type: cell-based; settings: 1 mM SAM, incubation for 5 days, 28° C.
Protocol: as §1

[6] = system: S. cinnamonensis; experiment: Effect of SAM on monensin production (Exp. 8); assay type: cell-based; settings: 1 mM SAM, incubation for 5 days, 30° C.
Protocol: as §1

[7] = system: S. peucetius; experiment: Effect of SAM on doxorubicin production (Exp. 10); assay type: cell-based; settings: 1 mM SAM, incubation for 5 days, 30° C.
Protocol: as §1

[8] = system: S. lividans TK23; experiment: Effect of externally added SAM on productivity of actinorhodin; assay type: cell-based, Streptomyces lividans; settings: wild type S. lividans TK23, 1 mM commercially available SAM, FIG. 5
Protocol: Based on the finding that in vivo over-expressed SAM positively affects production yield of actinorhodin in S. lividans TK23, an effect of SAM on productivity of actinorhodin was investigated when commercially available SAM is added directly to culture medium containing S. lividans TK23. As such, wild type S. lividans TK23 was treated with 1 mM of commercially available SAM.

[9] = Assay for activity of SAM-s (HPLC analysis of reaction products); assay type: biochemical, Streptomyces spectabilis ATCC 27741; settings: protein expressed in E. coli, 5 mM ATP, 5 mM methionine, 120 min at 30° C.
Protocol: In order to analyze activity of “SAM-s”, the gene encoding “SAM-s” was expressed in E. coli, and the resulting translational product, “SAM-s”, was then isolated.
To express the gene encoding “SAM-s” in E. coli, the gene was inserted into a pET-21a vector, and then introduced into E. coli BL21. The expressed gene product, “SAM-s” was isolated using a His-Tag purification system. Thereafter, 10 to 50 μl of the enzyme solution containing the protein “SAM-s” was added to a reaction mixture containing 100 mM of Tris-HCl, 200 mM of KCl, 10 mM of MgCl2, 1 mM DTT, 5 mM ATP, and 5 mM methionine, followed by incubation for 120 min at 30° C. After the incubation, reaction products were analyzed through HPLC using Reverse C18 column. In this regard, the column loaded with sample was initially equilibrated with a solution of 0.1 M of NaH2PO4/acetonitrile at a ratio of 98:2 (V/V), pH 2.65. Then, a second solution comprising 0.15 M NaH2PO4/acetonitrile at a ratio of 74:26 (V/V) was applied with continuous mixing with the first solution, forming a concentration gradient.

[10] = system: S. lividans TK23; experiment: Actinorhodin production in S. lividans TK23 transformed with pSAM-s; assay type: cell-based, Streptomyces lividans; settings: over-expression of SAM-s, incubation for 7 days at 28° C., FIG. 4
Protocol: The gene encoding “SAM-s” was first inserted into pWHM3, which is a shuttle vector between E. coli and Streptomyces species, giving an expression vector pSAM-s. The plasmid pSAM-s was then introduced into S. lividans TK23. The resulting transformant, Streptomyces lividans TK-23 harboring pSAM-s, was deposited in the Korean Culture Center of Microorganisms with accession No. KCCM 10397 on Jul. 2, 2002. The transformant was incubated in one liter of a medium including 50 g of glycerol, 5 g of glutamic acid, 21 g of morpholinopropane sulfonic acid, 200 mg of MgSO47H2O, 100 mg of CaCl22H2O, 100 mg NaCi, 82 mg KH2PO4, 9 mg FeSO47H2O, and 2 ml of trace element solution, adjusted to pH 6.5. During incubation for 7 days at 28° C., production yield of actinorhodin, which is a main antibiotic produced from S. lividans TK23, was analyzed.

C[S+](CC[C@H](N)C(=O)O)C[C@H]1O[C@@H](n2cnc3c(N)ncnc32)[C@H](O)[C@@H]1O (stereo partly drawn) [SAM, S-adenosyl-L-methionine]
Production amount of a treatment group, Chlortetracycline [1]: 130 µg/mL | Production amount of a treatment group, Streptomycin [2]: 602 µg/mL | Production amount of a treatment group, Spectinomycin [3]: 35 µg/mL | Production amount of a treatment group, Avermectin [4]: 25 µg/mL | Production amount of a treatment group, Tetracycline [5]: 188 µg/mL | Production amount of a treatment group, Monensin [6]: 180 µg/mL | Production amount of a treatment group, Doxorubicin [7]: 300 µg/mL | actinorhodin production versus control not treated with SAM [8]: produces more actinorhodin

B1: SAM-s: enzyme catalyzing SAM biosynthesis from Streptomyces spectabilis ATCC 27741, SEQ ID NO. 2 (protein)
chain: MSRRLFTSESVTEGHPDKIADQISDTILDALLREDPTSRVAVETLITTGLVHVAGEVTTKAYAPIAQLVREKILEIGYDSSKKGFDGASCGVSVSIGAQSPDIAQGVDTAYESRVEGDEDELDRQGAGDQGLMFGYACDETPELMPLPIHLAHRLSRRLSEVRKNGTIPYLRPDGKTQVTIEYDGDKAVRLDTVVVSSQHASDIDLESLLAPDIREFVVEPELKALVEDGIKLVVEPELKALVEDGIKLETEGYRLLVNPTGRFEIGGPMGDAGLTGRKIIIDTYGGMSRHGGGAFSGKDPSKVDRSAAYAMRWVAKNVVAAGLASRCEVQVAYAIGKAEPVGLFVETFGTNTIDTDKIEQAISEVFDLRPAAIIRSLDLLRPIYSQTAAYGHFGRSLPEFTWEKTDRVDALRKAAGLES
modifications: Steptomyces spectabilis ATCC 27741
activity to synthesize SAM [9]: has an activity to synthesize SAM | production of actinorhodin in the transformant in comparison with wild type S. lividans [10]: over six times
